Measured values reported in PubChem BioAssay AID248 (DTP/NCI, 2004).
Several values for one entry are separate records, joined by “and”; a condition that tells them apart may be missing. Identical values can stand only once. Inconclusive results and toxic doses are left out.

System: L1210 leukemia ip in BDF1 mice, survival T/C
Assay: NCI In Vivo Anticancer Drug Screen. Data for tumor model L1210 Leukemia (intraperitoneal) in B6D2F1 (BDF1) mice
Settings: endpoint: mean survival time, higher = longer survival
Summary of the method: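 Tumor cells were implanted, animals were treated, and survival was followed. The result divides the treated measurement by the vehicle-control measurement.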

[1] = dose: 100.0 mg/kg/injection, schedule: Q01DX009 (ip), vehicle: saline with Tween-80
[2] = dose: 100.0 mg/kg/injection, schedule: Q04DX003 (ip), vehicle: saline with Tween-80
[3] = dose: 200.0 mg/kg/injection, schedule: Q01DX009 (ip), vehicle: saline with Tween-80
[4] = dose: 200.0 mg/kg/injection, schedule: Q04DX003 (ip), vehicle: saline with Tween-80
[5] = dose: 400.0 mg/kg/injection, schedule: Q01DX009 (ip), vehicle: saline with Tween-80
[6] = dose: 400.0 mg/kg/injection, schedule: Q04DX003 (ip), vehicle: saline with Tween-80
[7] = dose: 25.0 mg/kg/injection, schedule: Q01DX009 (ip), vehicle: Klucel (hydroxypropylcellulose) (HPC)
[8] = dose: 50.0 mg/kg/injection, schedule: Q01DX009 (ip), vehicle: Klucel (hydroxypropylcellulose) (HPC)
[9] = dose: 100.0 mg/kg/injection, schedule: Q01DX009 (ip), vehicle: Klucel (hydroxypropylcellulose) (HPC)
[10] = dose: 400.0 mg/kg/injection, schedule: Q01DX001 (ip), vehicle: carboxymethylcellulose (CMC)
[11] = dose: 100.0 mg/kg/injection, schedule: Q01DX001 (ip), vehicle: saline
[12] = dose: 200.0 mg/kg/injection, schedule: Q01DX001 (ip), vehicle: saline
[13] = dose: 100.0 mg/kg/injection, schedule: Q04DX003 (ip), vehicle: Klucel (hydroxypropylcellulose) (HPC)
[14] = dose: 200.0 mg/kg/injection, schedule: Q04DX003 (ip), vehicle: Klucel (hydroxypropylcellulose) (HPC)
[15] = dose: 400.0 mg/kg/injection, schedule: Q04DX003 (ip), vehicle: Klucel (hydroxypropylcellulose) (HPC)

CC(=O)N(C)C1=C(Sc2ccc(Cl)cc2)C(=O)c2ccccc2C1=O
T/C (dose: 75.0 mg/kg/injection, schedule: Q01DX001 (ip), vehicle: carboxymethylcellulose (CMC)): 91 % of control
T/C (dose: 150.0 mg/kg/injection, schedule: Q01DX001 (ip), vehicle: carboxymethylcellulose (CMC)): 88 % of control

COC(=O)c1ccc(C(=O)OC)nc1
T/C (dose: 50.0 mg/kg/injection, schedule: Q04DX002 (ip), vehicle: Klucel (hydroxypropylcellulose) (HPC)): 106 % of control
T/C (dose: 100.0 mg/kg/injection, schedule: Q04DX002 (ip), vehicle: Klucel (hydroxypropylcellulose) (HPC)): 95 % of control
T/C (dose: 200.0 mg/kg/injection, schedule: Q04DX002 (ip), vehicle: Klucel (hydroxypropylcellulose) (HPC)): 103 % of control

COc1ccc(C(=O)CC(c2ccc3c(c2)OCO3)c2c(O)c3ccccc3oc2=O)cc1OC (configuration not stated)
T/C (dose: 50.0 mg/kg/injection, schedule: Q01DX009 (ip), vehicle: saline with Tween-80): 97 % of control
T/C [1]: 96 % of control
T/C [2]: 94 % of control
T/C [3]: 92 % of control
T/C [4]: 102 % of control
T/C [5]: 87 % of control
T/C [6]: 89 % of control

O=NN(CCCl)C(=O)NCC1CCC(CNC(=O)N(CCCl)N=O)CC1 (configuration not stated)
T/C (dose: 6.2 mg/kg/injection, schedule: Q01DX009 (ip), vehicle: carboxymethylcellulose (CMC)): 113 % of control
T/C (dose: 12.5 mg/kg/injection, schedule: Q01DX009 (ip), vehicle: carboxymethylcellulose (CMC)): 111 % of control
T/C [7]: 101 % of control
T/C (dose: 25.0 mg/kg/injection, schedule: Q01DX009 (ip), vehicle: carboxymethylcellulose (CMC)): 122 % of control
T/C [8]: 98 % of control
T/C (dose: 53.0 mg/kg/injection, schedule: Q01DX001 (ip), vehicle: carboxymethylcellulose (CMC)): 117 % of control
T/C (dose: 80.0 mg/kg/injection, schedule: Q01DX001 (ip), vehicle: carboxymethylcellulose (CMC)): 117 % of control
T/C [9]: 109 % of control
T/C (dose: 177.0 mg/kg/injection, schedule: Q01DX001 (ip), vehicle: carboxymethylcellulose (CMC)): 150 % of control
T/C (dose: 177.0 mg/kg/injection, schedule: Q01DX009 (ip), vehicle: carboxymethylcellulose (CMC)): 278 % of control
T/C (dose: 266.0 mg/kg/injection, schedule: Q01DX001 (ip), vehicle: carboxymethylcellulose (CMC)): 225 % of control
T/C (dose: 266.0 mg/kg/injection, schedule: Q01DX009 (ip), vehicle: carboxymethylcellulose (CMC)): 188 % of control
T/C [10]: 275 % of control
T/C (dose: 400.0 mg/kg/injection, schedule: Q01DX009 (ip), vehicle: carboxymethylcellulose (CMC)): 103 % of control
T/C (dose: 600.0 mg/kg/injection, schedule: Q01DX001 (ip), vehicle: carboxymethylcellulose (CMC)): 250 % of control

NC(=S)NN=C1CCCCCCCCCCC1
T/C (dose: 50.0 mg/kg/injection, schedule: Q01DX001 (ip), vehicle: carboxymethylcellulose (CMC)): 106 % of control
T/C (dose: 100.0 mg/kg/injection, schedule: Q01DX001 (ip), vehicle: carboxymethylcellulose (CMC)): 98 % of control
T/C (dose: 200.0 mg/kg/injection, schedule: Q01DX001 (ip), vehicle: carboxymethylcellulose (CMC)): 95 % of control
T/C [10]: 88 % of control

CC1NNC(=O)c2ccccc21 (configuration not stated)
T/C [11]: 95 % of control
T/C [12]: 96 % of control
T/C (dose: 400.0 mg/kg/injection, schedule: Q01DX001 (ip), vehicle: saline): 94 % of control

CCCCCCCC/C=C\CCCCCCCC(=O)NCCCOCCOCCOCC
T/C (dose: 75.0 mg/kg/injection, schedule: Q01DX009 (ip), vehicle: saline): 97 % of control
T/C (dose: 75.0 mg/kg/injection, schedule: Q04DX003 (ip), vehicle: saline): 94 % of control
T/C (dose: 150.0 mg/kg/injection, schedule: Q01DX009 (ip), vehicle: saline): 101 % of control
T/C (dose: 150.0 mg/kg/injection, schedule: Q04DX003 (ip), vehicle: saline): 90 % of control
T/C (dose: 300.0 mg/kg/injection, schedule: Q01DX009 (ip), vehicle: saline): 87 % of control
T/C (dose: 300.0 mg/kg/injection, schedule: Q04DX003 (ip), vehicle: saline): 95 % of control

c1ccc([As](C[As](c2ccccc2)c2ccccc2)c2ccccc2)cc1
T/C (dose: 50.0 mg/kg/injection, schedule: Q04DX003 (ip), vehicle: Klucel (hydroxypropylcellulose) (HPC)): 91 % of control
T/C [13]: 97 % of control
T/C [14]: 96 % of control
T/C [15]: 92 % of control

O=C(OCC1CC1)c1cc([N+](=O)[O-])cc([N+](=O)[O-])c1
T/C (dose: 25.0 mg/kg/injection, schedule: Q04DX003 (ip), vehicle: saline with Tween-80): 108 % of control
T/C (dose: 50.0 mg/kg/injection, schedule: Q04DX003 (ip), vehicle: saline with Tween-80): 106 % of control
T/C [2]: 101 % of control

CCc1ccccc1NC(=O)Oc1ccc(SC)cc1
T/C (dose: 100.0 mg/kg/injection, schedule: Q01DX001 (ip), vehicle: saline with Tween-80): 102 % of control
T/C [1]: 97 % of control and 99 % of control
T/C (dose: 100.0 mg/kg/injection, schedule: Q04DX002 (ip), vehicle: saline with Tween-80): 93 % of control and 94 % of control
T/C (dose: 200.0 mg/kg/injection, schedule: Q01DX001 (ip), vehicle: saline with Tween-80): 98 % of control
T/C [3]: 97 % of control and 89 % of control
T/C (dose: 200.0 mg/kg/injection, schedule: Q04DX002 (ip), vehicle: saline with Tween-80): 96 % of control and 97 % of control
T/C (dose: 400.0 mg/kg/injection, schedule: Q01DX001 (ip), vehicle: saline with Tween-80): 93 % of control
T/C (dose: 400.0 mg/kg/injection, schedule: Q04DX002 (ip), vehicle: saline with Tween-80): 96 % of control and 107 % of control
T/C [6]: 90 % of control

OCc1cccc2c1CCC2
T/C (dose: 12.5 mg/kg/injection, schedule: Q01DX001 (ip), vehicle: Klucel (hydroxypropylcellulose) (HPC)): 100 % of control
T/C (dose: 12.5 mg/kg/injection, schedule: Q01DX009 (ip), vehicle: Klucel (hydroxypropylcellulose) (HPC)): 104 % of control
T/C (dose: 25.0 mg/kg/injection, schedule: Q01DX001 (ip), vehicle: Klucel (hydroxypropylcellulose) (HPC)): 100 % of control
T/C [7]: 96 % of control
T/C (dose: 50.0 mg/kg/injection, schedule: Q01DX001 (ip), vehicle: Klucel (hydroxypropylcellulose) (HPC)): 102 % of control
T/C [8]: 94 % of control

Clc1ccc(CSc2ncc(Br)c(Cl)n2)cc1
T/C (dose: 100.0 mg/kg/injection, schedule: Q01DX Z (ip), vehicle: methylcellulose (MC)): 90 % of control
T/C (dose: 200.0 mg/kg/injection, schedule: Q01DX Z (ip), vehicle: methylcellulose (MC)): 99 % of control

O=C(NCCCNC(=O)Nc1cccc(C2=NCCCN2)c1)Nc1cccc(C2=NCCCN2)c1
T/C (dose: 0.5 mg/kg/injection, schedule: Q01DX Z (ip), vehicle: carboxymethylcellulose (CMC)): 104 % of control
T/C (dose: 1.0 mg/kg/injection, schedule: Q01DX Z (ip), vehicle: carboxymethylcellulose (CMC)): 106 % of control
T/C (dose: 2.0 mg/kg/injection, schedule: Q01DX Z (ip), vehicle: carboxymethylcellulose (CMC)): 96 % of control

O=C(Nc1cccc(C(F)(F)F)c1)N(Cc1ccccc1)c1ccccc1
T/C [9]: 109 % of control
T/C (dose: 200.0 mg/kg/injection, schedule: Q01DX009 (ip), vehicle: Klucel (hydroxypropylcellulose) (HPC)): 95 % of control
T/C (dose: 400.0 mg/kg/injection, schedule: Q01DX009 (ip), vehicle: Klucel (hydroxypropylcellulose) (HPC)): 96 % of control

CCCCCCCCCCCCCCCCOc1ccc2ccccc2c1
T/C [13]: 97 % of control
T/C [14]: 102 % of control
T/C [15]: 91 % of control

COC(=O)C(CSCSC)NC(=O)/C=C\c1ccccc1 (configuration not stated)
T/C [1]: 88 % of control
T/C [2]: 97 % of control
T/C [3]: 88 % of control
T/C [4]: 97 % of control
T/C [5]: 96 % of control
T/C [6]: 94 % of control

Cc1cccc(OCCOc2cccc(C)c2)c1
T/C [11]: 98 % of control
T/C [12]: 94 % of control

COc1ccccc1C1CCCCCC1O (configuration not stated)
T/C (dose: 100.0 mg/kg/injection, schedule: Q01DX009 (ip), vehicle: saline): 98 % of control
T/C (dose: 200.0 mg/kg/injection, schedule: Q01DX009 (ip), vehicle: saline): 98 % of control
T/C (dose: 400.0 mg/kg/injection, schedule: Q01DX009 (ip), vehicle: saline): 98 % of control

O=C(O)c1ccc2c(c1)NC(c1cccc3ccccc13)NC2=O (configuration not stated)
T/C [8]: 93 % of control
T/C [9]: 94 % of control
T/C (dose: 150.0 mg/kg/injection, schedule: Q01DX009 (ip), vehicle: Klucel (hydroxypropylcellulose) (HPC)): 96 % of control
